Laboratory results published in ChEMBL document CHEMBL6121062, “Discovery, Optimization, and Preclinical Pharmacology of EP652, a METTL3 Inhibitor with Efficacy in Liquid and Solid Tumor Models” (J Med Chem, 2025).
The source made the active and inactive calls. The calls are words filed in the database; no cut-off is given here.

Tests used:
SK-OV-3 [1] = assay: Antitumor activity against human SK-OV-3 cells xenografted in NSG mouse assessed as tumor growth inhibition at 30 mg/kg, ip qd treated for 52 days by bioluminescence imaging analysis; format: functional, organism-based; conditions: time 52.0 day
Kasumi 1 = assay: Induction of apoptosis in human Kasumi 1 cells incubated for 48 hrs by Caspase-Glo 3/7 assay; format: functional, cell-based
HepG2 = assay: Cytotoxicity against human HepG2 cells assessed as cell viability at 50 uM relative to control; format: functional; conditions: read-out: Activity
[2] = target: T1, METTL3/METTL14 (Homo sapiens) (UniProt Q86U44+Q9HCE5); assay: (§1) Inhibition of METTL3/METTL14-mediated m6A mRNA expression in human Calu-6 cells incubated for 24 hrs by LC-MS/MS analysis; format: cell-based
METTL3/METTL14 [3] = target: T2, METTL3/METTL14 (Homo sapiens, UniProt Q86U44); assay: as §1; format: cell-based
T2 sequence (Q86U44 whole entry): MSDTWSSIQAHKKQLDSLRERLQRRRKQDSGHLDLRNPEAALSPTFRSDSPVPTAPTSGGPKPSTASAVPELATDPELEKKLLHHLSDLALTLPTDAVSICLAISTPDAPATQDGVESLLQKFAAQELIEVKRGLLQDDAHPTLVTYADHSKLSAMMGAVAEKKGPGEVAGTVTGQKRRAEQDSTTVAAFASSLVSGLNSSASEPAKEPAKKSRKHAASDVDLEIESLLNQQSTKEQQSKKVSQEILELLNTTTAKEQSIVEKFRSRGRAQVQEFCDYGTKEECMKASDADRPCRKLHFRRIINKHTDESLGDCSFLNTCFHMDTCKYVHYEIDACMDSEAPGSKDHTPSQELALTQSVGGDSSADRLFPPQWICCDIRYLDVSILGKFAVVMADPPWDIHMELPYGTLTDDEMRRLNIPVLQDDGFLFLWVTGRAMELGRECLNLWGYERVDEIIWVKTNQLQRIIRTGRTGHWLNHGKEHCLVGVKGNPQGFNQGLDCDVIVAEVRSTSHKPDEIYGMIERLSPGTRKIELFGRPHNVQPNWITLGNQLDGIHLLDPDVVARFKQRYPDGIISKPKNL
T2 sequence (Q9HCE5 whole entry, further chain): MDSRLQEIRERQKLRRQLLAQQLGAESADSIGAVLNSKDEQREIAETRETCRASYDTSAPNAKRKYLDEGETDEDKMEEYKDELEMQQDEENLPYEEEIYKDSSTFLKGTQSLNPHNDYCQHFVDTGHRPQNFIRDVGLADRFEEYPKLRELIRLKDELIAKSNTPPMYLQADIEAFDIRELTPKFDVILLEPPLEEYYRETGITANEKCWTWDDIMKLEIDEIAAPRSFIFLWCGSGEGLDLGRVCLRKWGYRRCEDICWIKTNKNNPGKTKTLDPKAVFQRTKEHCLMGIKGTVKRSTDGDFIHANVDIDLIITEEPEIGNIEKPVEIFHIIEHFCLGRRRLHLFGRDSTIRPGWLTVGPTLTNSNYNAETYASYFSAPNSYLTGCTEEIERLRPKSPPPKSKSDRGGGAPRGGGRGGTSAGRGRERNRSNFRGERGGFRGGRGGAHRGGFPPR

SK-OV-3 [4] = assay: Antiproliferative activity against human SK-OV-3 cells assessed as inhibition of cell viability incubated for 72 hrs by ATPlite assay; format: functional, cell-based; conditions: SK-OV-3, 72 h
[5] = Half life in human liver microsomes; format: ADME, Microsome
[6] = Toxicity in NSG mouse xenografted with human A549 cells assessed as body weight gain at 30 mg/kg, ip qd treated for 50 days; format: organism-based; conditions: in vivo, 1200 h, time 50 day
NCI-H1650 = assay: Growth inhibition of human NCI-H1650 cells spheroid model; format: functional, cell-based
[7] = target: T1, METTL3/METTL14 (Homo sapiens); assay: (§2) Inhibition of METTL3/METTL14-mediated m6A mRNA expression in human A549 cells incubated for 24 hrs by LC-MS/MS analysis; format: cell-based
METTL3/METTL14 [8] = target: T2, METTL3/METTL14; assay: as §2; format: cell-based
Cytochrome P450 2D6 = Cytochrome P450 2D6 (Homo sapiens, UniProt P10635); assay: Inhibition of CYP2D6 (unknown origin); format: ADME
Sequence of Cytochrome P450 2D6 (P10635 whole entry): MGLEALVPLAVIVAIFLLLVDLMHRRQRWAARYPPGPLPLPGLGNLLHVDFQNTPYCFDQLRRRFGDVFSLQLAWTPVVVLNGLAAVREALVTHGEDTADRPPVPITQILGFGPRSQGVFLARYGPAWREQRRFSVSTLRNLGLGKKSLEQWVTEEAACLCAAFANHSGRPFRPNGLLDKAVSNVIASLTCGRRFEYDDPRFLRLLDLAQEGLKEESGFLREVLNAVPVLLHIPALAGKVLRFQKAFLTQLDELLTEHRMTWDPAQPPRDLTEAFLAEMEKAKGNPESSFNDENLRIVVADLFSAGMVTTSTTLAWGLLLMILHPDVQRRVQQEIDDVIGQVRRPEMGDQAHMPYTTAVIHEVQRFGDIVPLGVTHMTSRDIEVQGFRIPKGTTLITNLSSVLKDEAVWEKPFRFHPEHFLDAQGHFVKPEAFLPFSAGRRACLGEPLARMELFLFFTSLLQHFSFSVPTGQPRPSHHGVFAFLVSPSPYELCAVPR

MV4-11 [9] = assay: Antitumor activity against human MV4-11 cells expressing Luc-mCh-Puro xenografted in NSG mouse assessed as inhibition of cancer progression at 30 mg/kg, ip qd treated for 31 days measured upto 40 days by bioluminescence imaging analysis; format: functional, organism-based; conditions: time <= 40.0 day
Cytochrome P450 1A2 = target: T3, Cytochrome P450 1A2 (Homo sapiens, UniProt P05177); assay: Inhibition of CYP1A2 (unknown origin); format: ADME
T3 sequence (P05177 whole entry): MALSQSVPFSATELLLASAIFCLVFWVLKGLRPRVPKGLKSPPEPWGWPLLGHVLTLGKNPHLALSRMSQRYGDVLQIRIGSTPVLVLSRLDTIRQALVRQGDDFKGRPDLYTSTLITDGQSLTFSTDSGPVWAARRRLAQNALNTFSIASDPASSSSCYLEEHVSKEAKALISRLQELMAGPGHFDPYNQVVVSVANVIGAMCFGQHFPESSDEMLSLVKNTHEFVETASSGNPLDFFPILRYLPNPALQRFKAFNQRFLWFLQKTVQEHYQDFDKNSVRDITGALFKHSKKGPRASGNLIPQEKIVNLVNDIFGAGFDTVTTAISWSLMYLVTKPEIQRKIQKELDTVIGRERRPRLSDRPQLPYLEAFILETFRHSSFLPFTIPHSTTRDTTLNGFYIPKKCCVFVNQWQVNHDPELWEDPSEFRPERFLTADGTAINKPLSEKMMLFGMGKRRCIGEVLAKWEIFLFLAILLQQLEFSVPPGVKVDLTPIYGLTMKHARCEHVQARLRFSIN

[10] = target: T1, METTL3/METTL14 (Homo sapiens); assay: (§3) Inhibition of METTL3/METTL14-mediated m6A mRNA expression in human FaDu cells incubated for 24 hrs by LC-MS/MS analysis; format: cell-based
METTL3/METTL14 [11] = target: T2, METTL3/METTL14; assay: as §3; format: cell-based
A549 [12] = assay: Antiproliferative activity against human A549 cells assessed as inhibition of cell viability incubated for 72 hrs by ATPlite assay; format: functional, cell-based; conditions: A549, 72 h
SK-OV-3 [13] = assay: Antitumor activity against human SK-OV-3 cells xenografted in NSG mouse assessed as prolongation of animal survival at 30 mg/kg, ip qd treated for 83 days; format: functional, organism-based; conditions: time 83.0 day
A549 [14] = assay: Antitumor activity against human A549 cells xenografted in NSG mouse assessed as prolongation of animal survival at 30 mg/kg, ip qd treated for 50 days; format: functional, organism-based; conditions: time 50.0 day
[15] = Unbound AUC in Sprague-Dawley rat at 1 mg/kg/day, iv measured for 24 hrs by LC-MS/MS analysis; format: ADME, organism-based; conditions: in vivo
[16] = target: T1, METTL3/METTL14 (Homo sapiens); assay: (§4) Inhibition of METTL3/METTL14-mediated m6A mRNA expression in human SK-OV-3 cells incubated for 24 hrs by LC-MS/MS analysis; format: cell-based
METTL3/METTL14 [17] = target: T2, METTL3/METTL14; assay: as §4; format: cell-based
MV4-11 [18] = assay: Induction of apoptosis in human MV4-11 cells incubated for 48 hrs by Caspase-Glo 3/7 assay; format: functional, cell-based
[19] = Toxicity in NSG mouse xenografted with human SK-OV-3 cells assessed as body weight gain at 30 mg/kg, ip qd treated for 83 days; format: organism-based; conditions: in vivo, 1992 h, time 83 day
FaDu [20] = assay: Antiproliferative activity against human FaDu cells assessed as inhibition of cell viability incubated for 72 hrs by ATPlite assay; format: functional, cell-based
FaDu [21] = assay: Antitumor activity against human FaDu cells xenografted in NSG mouse assessed as tumor growth inhibition at 30 mg/kg, ip qd treated for 20 days; format: functional, organism-based; conditions: time 20.0 day
FaDu [22] = assay: Antitumor activity against human FaDu cells xenografted in NSG mouse assessed as prolongation of animal survival at 30 mg/kg, ip qd treated for 20 days; format: functional, organism-based; conditions: time 20.0 day
Cytochrome P450 2C9 = Cytochrome P450 2C9 (Homo sapiens, UniProt P11712); assay: Inhibition of CYP2C9 (unknown origin); format: ADME
Sequence of Cytochrome P450 2C9 (P11712 whole entry): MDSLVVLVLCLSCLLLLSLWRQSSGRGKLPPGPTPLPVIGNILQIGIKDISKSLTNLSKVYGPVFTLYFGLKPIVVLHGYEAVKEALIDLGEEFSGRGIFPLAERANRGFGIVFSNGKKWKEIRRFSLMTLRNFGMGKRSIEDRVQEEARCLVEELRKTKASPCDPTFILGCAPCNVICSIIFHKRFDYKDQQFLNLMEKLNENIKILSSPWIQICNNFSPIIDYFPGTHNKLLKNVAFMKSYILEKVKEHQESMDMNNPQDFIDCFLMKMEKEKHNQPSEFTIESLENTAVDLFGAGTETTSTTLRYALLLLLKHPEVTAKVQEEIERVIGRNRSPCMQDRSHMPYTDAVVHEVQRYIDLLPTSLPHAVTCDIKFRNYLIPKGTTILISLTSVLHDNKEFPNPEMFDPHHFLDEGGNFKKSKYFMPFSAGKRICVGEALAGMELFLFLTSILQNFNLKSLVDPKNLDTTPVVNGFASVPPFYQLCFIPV

[23] = target: T1, METTL3/METTL14 (Homo sapiens); assay: (§5) Inhibition of METTL3/METTL14-mediated m6A mRNA expression in human MV4-11 cells incubated for 24 hrs by LC-MS/MS analysis; format: cell-based
METTL3/METTL14 [24] = target: T2, METTL3/METTL14; assay: as §5; format: cell-based
[25] = Unbound clearance in Sprague-Dawley rat at 1 mg/kg/day, iv measured for 24 hrs by LC-MS/MS analysis; format: ADME, organism-based; conditions: in vivo
[26] = Stability in rat hepatocytes assessed as half life; format: ADME, cell-based, Hepatocyte
[27] = Unbound fraction in Sprague-Dawley rat plasma at 1 mg/kg/day, iv measured for 24 hrs by LC-MS/MS analysis; format: ADME, organism-based; conditions: in vivo
MV4-11 [28] = assay: Antiproliferative activity against human MV4-11 cells assessed as inhibition of cell viability incubated for 72 hrs by ATPlite assay; format: functional, cell-based; conditions: MV4-11, 72 h
Calu-6 = assay: Antiproliferative activity against human Calu-6 cells assessed as inhibition of cell viability incubated for 72 hrs by ATPlite assay; format: functional, cell-based; conditions: Calu-6, 72 h
[29] = Toxicity in NSG mouse xenografted with human FaDu cells assessed as macroscopic adverse events at 30 mg/kg, ip qd treated for 20 days; format: organism-based; conditions: in vivo, 480 h, time 20 day
MV4-11 [30] = assay: Antitumor activity against human MV4-11 cells expressing Luc-mCh-Puro xenografted in NSG mouse assessed as decrease in hCD45+ cells in bone marrow at 30 mg/kg, ip qd measured after 28 days by flow cytometry; format: functional, organism-based; conditions: time 28.0 day
Cytochrome P450 3A4 = Cytochrome P450 3A4 (Homo sapiens, UniProt P08684); assay: Inhibition of CYP3A4 (unknown origin); format: ADME
Sequence of Cytochrome P450 3A4 (P08684 whole entry): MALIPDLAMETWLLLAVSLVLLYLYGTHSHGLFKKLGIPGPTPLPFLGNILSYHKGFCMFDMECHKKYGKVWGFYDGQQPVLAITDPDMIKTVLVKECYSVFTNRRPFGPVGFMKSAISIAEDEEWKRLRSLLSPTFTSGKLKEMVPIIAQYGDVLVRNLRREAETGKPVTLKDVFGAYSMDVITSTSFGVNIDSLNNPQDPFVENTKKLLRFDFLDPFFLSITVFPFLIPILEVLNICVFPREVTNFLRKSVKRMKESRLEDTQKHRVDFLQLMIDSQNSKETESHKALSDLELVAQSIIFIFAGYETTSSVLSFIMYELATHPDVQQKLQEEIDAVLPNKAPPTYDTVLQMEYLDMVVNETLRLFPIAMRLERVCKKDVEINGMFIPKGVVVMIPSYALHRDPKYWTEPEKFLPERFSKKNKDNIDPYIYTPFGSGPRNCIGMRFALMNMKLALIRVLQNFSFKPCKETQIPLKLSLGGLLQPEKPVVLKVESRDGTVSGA

In the case of `C[C@@H](n1cc(-c2cncc(N(C)C)c2)nn1)n1ccc(N2CCC[C@@H](NCC3CC3)C2)cc1=O`, the inhibition (SK-OV-3 [1]) is reported as “Active”, the Activity (Kasumi 1) is reported as “Active” and the viability at 50 µM (HepG2) is reported as 90.3%. For the same compound, the inhibition [2] was “Dose-dependent-effect”, the IC50 (METTL3/METTL14 [3]) was 9 nM and the IC50 (SK-OV-3 [4]) was 11 nM. For the same compound, the half-life [5] was 2.34 h, the Activity [6] was “Non-toxic” and the IC50 (NCI-H1650) was 99 nM. For the same compound, the inhibition [7] was “Dose-dependent-effect”, the IC50 (METTL3/METTL14 [8]) was 7 nM and the IC50 (Cytochrome P450 2D6) was greater than 100000 nM. For the same compound, the inhibition (MV4-11 [9]) was “Active”, the IC50 (Cytochrome P450 1A2) was greater than 100000 nM and the inhibition [10] was “Dose-dependent-effect”. The IC50 (METTL3/METTL14 [11]) was 6 nM, the IC50 (A549 [12]) was 169 nM and the Activity (SK-OV-3 [13]) was “Active”. For the same compound, the Activity (A549 [14]) was “Active”, the fAUC [15] was 5.1 µM·min and the inhibition [16] was “Dose-dependent-effect”. The IC50 (METTL3/METTL14 [17]) was 3 nM, the Activity (MV4-11 [18]) was “Active” and the Activity [19] was “Non-toxic”. For the same compound, the IC50 (FaDu [20]) was 50 nM, the inhibition (FaDu [21]) was “Active” and the Activity (FaDu [22]) was “Active”. For the same compound, the IC50 (Cytochrome P450 2C9) was greater than 100000 nM, the inhibition [23] was “Dose-dependent-effect” and the IC50 (METTL3/METTL14 [24]) was 5 nM. For the same compound, the CL free [25] was 358 mL/min/kg, the half-life [26] was greater than 4 h and the Fu [27] was 23%. The IC50 (MV4-11 [28]) was 234 nM, the IC50 (Calu-6) was 18 nM and the Activity [29] was “Non-toxic”. For the same compound, the Activity (MV4-11 [30]) was “Active” and the IC50 (Cytochrome P450 3A4) was 900 nM.
